Where two headings read alike, the source gives them in different places.
What was measured:
P-gp = settings: not told; cited from earlier work
[1] = Stability of analytes in rat plasma under storage conditions; assay type: physicochemical; settings: n = 6; for Stability RE, 3 freeze-thaw cycles / Stability RE, 30 days at −20 °C: rat plasma; for Stability RE, processed samples' stability: room temperature 24 h
Protocol: The stabilities of analytes in plasma were assessed by analyzing the QC samples at three concentration levels under the following storage conditions: after three freeze (−20 °C)-thaw (room temperature) cycles; stored at −20 °C for 30 days, and comparing the results with those of freshly prepared QC samples. Stabilities of the processed samples at room temperature for 24 h were also assessed.

[2] = jejunum vs ileum and colon; cited from earlier work
[3] = PK study of the 12 alkaloids in rat plasma after oral administration of ZJ and FZJ extract (LC–MS/MS); assay type: in vivo
Protocol: The time schedule included 15 time-points and six rats were sampled at each time-point. All the rats were orally administered with ZJ extract (suspended in water) at a dose of 3.38 g/kg body weight (dosages of the 12 alkaloids were shown in Table S4), equivalent to crude drug dose of 12 g/kg body weight. Blood samples were collected from the suborbital vein of the rats at 10, 20, 30, 60, 90, 120, 180, 240, 300, 330, 360, 480, 720, 1440, 2160 min after administration, and centrifuged immediately at 5000 rpm for 10 min. The plasma samples were stored at −20 °C until analysis.
Similarly, the time schedule of other rats included 15 time-points and six rats were orally administered with FZJ extract at a dose of 3.76 g/kg body weight (also equivalent to crude drug dose of 12 g/kg body weight, Table S4). Blood samples were collected and treated as mentioned above in the PK study of ZJ extract.
PK parameters of the 12 alkaloids including AUC0→t, AUC0→∞, mean retention time (MRT0→t, MRT0→∞), and elimination half-life (t1/2) were calculated with non-compartmental method by DAS 2.0 software (Mathematical Pharmacology Professional Committee of China, Shanghai, China). Maximum plasma drug concentration (Cmax) and time to reach the maximum plasma drug concentration (Tmax) were observed directly from the detected C–T data. The results were expressed as arithmetic mean ± standard deviation (SD).

[4] = Two-compartment model fitting of C–T curves (DAS 2.0); assay type: in vivo, rat
From the text: Double peaks in C–T curves were observed repeatedly in the PK study of ZJ and related TCM prescriptions, but explanations to the phenomenon were still ambiguous. Generally, possible reasons for the double peak phenomenon could be summarized as follows: (a) enterohepatic circulation; […] (c) irregular pattern of gastric emptying. […] Moreover, Tmax of the alkaloids after administration of ZJ extract were deferred from that of FZJ administration. […] It probably play a major role in the double peak phenomenon, since the GI motility can affect the drug absorption.

[5] = Dose modified systemic exposure (AUC0→∞/D, Cmax/D)
Protocol: Because the alkaloids content in ZJ and FZJ were no longer linear with the proportion of CR and EF after extraction process, AUC0→∞/D (ratio of AUC0→∞ and dose) and Cmax/D (ratio of Cmax and dose) were calculated to estimate the dose modified systemic exposure levels of the 12 alkaloids (Table 3). […] Physicochemical properties of these alkaloids had been calculated in silico to predict their human colon adenocarcinoma cell (Caco-2) permeability according to the three-property based rule (3PRule). Polar surface area (PSA), logarithm of the n-octanol/water distribution coefficient (LogD), molecular weight (MW), hydrogen bond donors (HBD), hydrogen bond acceptors (HBA), number of free rotatable bonds (NRB) and molar solubility (S) of the alkaloids were retrieved from SciFinder® (American Chemical Society).

SMILES: COc1cc2c(cc1OC)-c1cc3ccc(OC)c(OC)c3c[n+]1CC2 [palmatine]
- P-gp substrate (P-gp): P-gp substrates
- Stability RE, 3 freeze-thaw cycles ([1]; high QC concentration): −12.89%
- Stability RE, 30 days at −20 °C ([1]; high QC concentration): −12.35%
- Stability RE, 3 freeze-thaw cycles ([1]; low QC concentration): −14.23%
- Stability RE, 30 days at −20 °C ([1]; low QC concentration): −17.74%
- Stability RE, 3 freeze-thaw cycles ([1]; medium QC concentration): −7.2%
- Stability RE, 30 days at −20 °C ([1]; medium QC concentration): −13.85%
- Stability RE, processed samples' stability ([1]; high QC concentration): −12.47%
- Stability RE, processed samples' stability ([1]; low QC concentration): −9.27%
- Stability RE, processed samples' stability ([1]; medium QC concentration): −2.85%
- absorption rate constant (Ka) compared between intestinal sites [2]: greater than that at ileum and colon
- AUC(0-inf) ([3]; rat, in vivo, po, 3.38 g/kg): 96.6 ± 33.2 ng·h/mL
- AUC(0-t) ([3]; rat, in vivo, po, 3.38 g/kg): 88.3 ± 24.9 ng·h/mL
- Cmax ([3]; rat, in vivo, po, 3.38 g/kg): 34.1 ± 19.2 ng/mL
- MRT inf ([3]; rat, in vivo, po, 3.38 g/kg): 8.75 h
- MRT last ([3]; rat, in vivo, po, 3.38 g/kg): 6.74 h
- Tmax ([3]; rat, in vivo, po, 3.38 g/kg): 1.5 h
- half-life ([3]; rat, in vivo, po, 3.38 g/kg): 5.65 ± 2.41 h
- AUC(0-inf) ([3]; rat, in vivo, po, 3.76 g/kg): 18.9 ± 5.5 ng·h/mL
- AUC(0-t) ([3]; rat, in vivo, po, 3.76 g/kg): 18.2 ± 4.98 ng·h/mL
- Cmax ([3]; rat, in vivo, po, 3.76 g/kg): 9.74 ± 3.53 ng/mL
- MRT inf ([3]; rat, in vivo, po, 3.76 g/kg): 4.49 h
- MRT last ([3]; rat, in vivo, po, 3.76 g/kg): 3.86 h
- Tmax ([3]; rat, in vivo, po, 3.76 g/kg): 3 h
- half-life ([3]; rat, in vivo, po, 3.76 g/kg): 2.51 ± 1.73 h

SMILES: CCCCC=CCCCCCCCc1cc(=O)c2ccccc2n1C [evocarpine]
- AIC (Akaike's information criterion method), two-compartment model fitting ([4]; oral FZJ extract): 27.61 ± 10.527
- r^2 (correlation coefficient method), two-compartment model fitting ([4]; oral FZJ extract): 0.740 ± 0.167
- AIC (Akaike's information criterion method), two-compartment model fitting ([4]; oral ZJ extract): 78.232 ± 11.393
- r^2 (correlation coefficient method), two-compartment model fitting ([4]; oral ZJ extract): 0.734 ± 0.201
- Stability RE, 3 freeze-thaw cycles ([1]; high QC concentration): 7.91%
- Stability RE, 30 days at −20 °C ([1]; high QC concentration): 6.12%
- Stability RE, 3 freeze-thaw cycles ([1]; low QC concentration): −19.16%
- Stability RE, 30 days at −20 °C ([1]; low QC concentration): 8.28%
- Stability RE, 3 freeze-thaw cycles ([1]; medium QC concentration): 3.44%
- Stability RE, 30 days at −20 °C ([1]; medium QC concentration): −14.67%
- Stability RE, processed samples' stability ([1]; high QC concentration): 3.83%
- Stability RE, processed samples' stability ([1]; low QC concentration): 14.05%
- Stability RE, processed samples' stability ([1]; medium QC concentration): −14.47%
- AUC(0-t) ([3]; 3.38 g/kg, rat plasma, oral ZJ extract, mean ± SD, n = 6, read-out: AUC0→t): 55.6 ± 12.4 ng·h/mL
- AUC(0-inf) ([3]; 3.38 g/kg, rat plasma, oral ZJ extract, mean ± SD, n = 6, read-out: AUC0→∞): 59 ± 13.3 ng·h/mL
- Cmax ([3]; 3.38 g/kg, rat plasma, oral ZJ extract, mean ± SD, n = 6, read-out: Cmax): 24.2 ± 12.9 ng/mL
- MRT last ([3]; 3.38 g/kg, rat plasma, oral ZJ extract, mean ± SD, n = 6, read-out: MRT0→t (converted)): 4.19 h
- MRT inf ([3]; 3.38 g/kg, rat plasma, oral ZJ extract, mean ± SD, n = 6, read-out: MRT0→∞ (converted)): 6.52 h
- half-life ([3]; 3.38 g/kg, rat plasma, oral ZJ extract, mean ± SD, n = 6, read-out: t1/2): 8.99 ± 6.39 h
- Tmax ([3]; 3.38 g/kg, rat plasma, oral ZJ extract, read-out: Tmax (converted)): 1 h
- AUC(0-t) ([3]; 3.76 g/kg, rat plasma, oral FZJ extract, mean ± SD, n = 6, read-out: AUC0→t): 17.8 ± 3.99 ng·h/mL
- AUC(0-inf) ([3]; 3.76 g/kg, rat plasma, oral FZJ extract, mean ± SD, n = 6, read-out: AUC0→∞): 19.6 ± 4.79 ng·h/mL
- Cmax ([3]; 3.76 g/kg, rat plasma, oral FZJ extract, mean ± SD, n = 6, read-out: Cmax): 4.07 ± 0.44 ng/mL
- MRT last ([3]; 3.76 g/kg, rat plasma, oral FZJ extract, mean ± SD, n = 6, read-out: MRT0→t (converted)): 7.04 h
- MRT inf ([3]; 3.76 g/kg, rat plasma, oral FZJ extract, mean ± SD, n = 6, read-out: MRT0→∞ (converted)): 9.3 h
- half-life ([3]; 3.76 g/kg, rat plasma, oral FZJ extract, mean ± SD, n = 6, read-out: t1/2): 6.91 ± 1 h
- Tmax ([3]; 3.76 g/kg, rat plasma, oral FZJ extract, read-out: Tmax (converted)): 0.5 h
- Tsec (time of the secondary peak in C–T curve) ([3]; rat plasma, oral ZJ extract): 240 min
- Csec (drug concentration of the secondary peak in C–T curve) ([3]; rat plasma, oral ZJ extract, mean ± SD, n = 6): 7.36 ± 4.89 ng/mL
- AUC0→∞/D (ratio of AUC0→∞ and dose) ([5]; oral FZJ extract): 13.16
- Cmax/D (ratio of Cmax and dose) ([5]; oral FZJ extract): 2.74
- AUC0→∞/D (ratio of AUC0→∞ and dose) ([5]; oral ZJ extract): 35.17
- Cmax/D (ratio of Cmax and dose) ([5]; oral ZJ extract): 14.42

— paper PMC6155683, “Pharmacokinetics Studies of 12 Alkaloids in Rat Plasma after Oral Administration of Zuojin and Fan-Zuojin Formulas” (Molecules : A Journal of Synthetic Chemistry and Natural …, 2017)
